# Results from PubChem BioAssay (NCI).
# Several values for one entry are separate records, joined by “and”; a condition that tells them apart may be missing. Equal values may be shown once.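 Assay format: 96-well plates, 48-hour exposure. The concentration for 50% growth inhibition is given as GI50. TGI marks complete inhibition of growth.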
# Experiments:
# Assay in all cases: inhibition of tumour cell growth, NCI panel, 48 h
# U251 CNS = system: U251 CNS
# DU-145 prostate = system: DU-145 prostate
# SN12C renal = system: SN12C renal
# EKVX NSCLC = system: EKVX NSCLC
# HT29 colon = system: HT29 colon
# UACC-62 melanoma = system: UACC-62 melanoma
# SNB-75 CNS = system: SNB-75 CNS
# MCF7 breast = system: MCF7 breast
# A549 NSCLC = system: A549 NSCLC
# HS 578T breast = system: HS 578T breast
Structure (SMILES),GI50 (U251 CNS),TGI (U251 CNS),GI50 (DU-145 prostate),TGI (DU-145 prostate),GI50 (SN12C renal),TGI (SN12C renal),GI50 (EKVX NSCLC) [µM],TGI (EKVX NSCLC) [µM],GI50 (HT29 colon),TGI (HT29 colon),GI50 (UACC-62 melanoma),TGI (UACC-62 melanoma),GI50 (SNB-75 CNS),TGI (SNB-75 CNS),GI50 (MCF7 breast),TGI (MCF7 breast),GI50 (A549 NSCLC),TGI (A549 NSCLC),GI50 (HS 578T breast),TGI (HS 578T breast)
O=C(NCc1ccco1)c1ccc(NC2=C(Cl)C(=O)N(Cc3ccccc3)C2=O)cc1,18.3 µM,44.9 µM,15.8 µM,29.2 µM,17.4 µM,40.6 µM,31.2,72.5,35 µM,> 100 µM,16.7 µM,36.7 µM,41.9 µM,> 100 µM,3.91 µM,23.8 µM,37.2 µM,> 100 µM,43.3 µM,> 100 µM
COc1ccc(-c2c(-c3cc(OC)c(OC)c(OC)c3)noc2N)cc1,< 0.0165 µM,12.6 µM,0.0187 µM,1.32 µM,0.0374 µM,> 69.8 µM,1.03,> 100,< 0.0144 µM,0.796 µM,< 0.01 µM,> 65.2 µM,< 0.01 µM,94.2 µM,< 0.01 µM,19.1 µM,< 0.0124 µM,> 100 µM,< 0.0104 µM,> 75.9 µM
COc1cc(-c2ncn(/C=C\C(=O)OC(C)C)n2)cc(C(F)(F)F)c1,0.0335 µM and 0.0683 µM,5.24 µM and 11.4 µM,0.238 µM and 0.2 µM,12.5 µM and 11.7 µM,0.28 µM and 0.314 µM,11.7 µM and 11 µM,2.6,19.5,0.0474 µM and 0.0896 µM,12.3 µM and 3.01 µM,0.112 µM and 0.114 µM,2 µM and 3.42 µM,0.0748 µM and 0.121 µM,0.999 µM and 0.904 µM,0.0364 µM and 0.0477 µM,1.67 µM and 10.4 µM,0.0609 µM and 0.0783 µM,11.6 µM and 8.63 µM,0.254 µM and 0.243 µM,> 65.9 µM and 6.71 µM
COc1ccc(-c2cc(-c3ccc(O)cc3)nc3n[nH]c(N)c23)cc1,18.6 µM,46.7 µM,15.3 µM,36.5 µM,19.2 µM,36.5 µM,15.3,52.3,22.6 µM,> 100 µM,17.2 µM,34.5 µM,31.7 µM,> 100 µM,16.7 µM,56.8 µM,26.8 µM,> 100 µM,19.6 µM,43.3 µM
N#CS.N=C=S.N=C=S.[Cu+2].[NH2-].[NH2-].[NH2-].[NH2-].c1ccc2ncccc2c1,20.1 µM,38.1 µM,17.3 µM,36.1 µM,> 100 µM,> 100 µM,47.4,> 100,60.7 µM,> 100 µM,19.4 µM,37 µM,21 µM,49.9 µM,18.2 µM,35.9 µM,20.4 µM,51.5 µM,29.4 µM,> 100 µM
CCCCCCCCCCCCCCCCOP(=O)(O)OP(=O)(O)OCC1OC(n2ccc(N)nc2=O)C(O)C1O (centres undefined),–,> 100 µM,–,> 100 µM,> 100 µM and 19.4 µM,> 100 µM,–,> 100,–,> 100 µM,> 100 µM and 21.3 µM,> 100 µM,> 100 µM,> 100 µM,> 100 µM and 19.3 µM,> 100 µM,–,> 100 µM,–,> 100 µM
O=C(Nc1nc2ccc(F)cc2s1)c1cccnc1Nc1ccc(Cl)cc1,2.88 µM,> 100 µM,3.76 µM,> 100 µM,2.63 µM,> 100 µM,2.45,> 82.6,3.1 µM,> 100 µM,2.47 µM,> 100 µM,2.36 µM,16.1 µM,2.32 µM,> 100 µM,3.35 µM,> 33.7 µM,2.1 µM,7.54 µM
